Measurements published in PubChem BioAssay AID1963973 (Molecular Pharmacology Branch, DTP, NCI, 2024).

Tested on: 883617-216-R-J1-PDC tumor spheroids, viability
Test: Anticancer human tumor 883617-216-R-J1-PDC patient-derived bladder carcinoma cell line growth inhibition [PI3K]
Conditions: spheroids with HUVEC and MSC; for IC50: curve of first compound; for viability, T/C: stronger effect = lower value
In short: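 Stroma-containing spheroids: tumor line, pooled-donor HUVEC, hMSC. Treatments: targeted agents with PI3K inhibitors. Dosing: clinically relevant, half-log spacing, 10 microM ceiling without known Cmax. Read-out: cell viability.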
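Also: spheroids exposed to agents for 7 days before the viability read.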

`CC(=O)c1c(C)c2cnc(Nc3ccc(N4CCNCC4)cn3)nc2n(C2CCCC2)c1=O` + CC(Nc1ccc2c(c1)OCCn1cc(N3C(=O)OCC3C(F)F)nc1-2)C(N)=O gave an IC50 (second compound 0.00316 µM) of 74.3 nM, an IC50 (second compound 0.01 µM) of 54.3 nM and an IC50 (second compound 0.0316 µM) of 35.9 nM. For the same compound, the IC50 (second compound 0.1 µM) was 0.515 nM, the IC50 (second compound 0.316 µM) was under 0.316 nM and the IC50 (second compound 1 µM) was under 0.316 nM. The viability, T/C (second compound 0.00316 µM, first compound 0.000316 µM) was 99.1%, the viability, T/C (second compound 0.00316 µM, first compound 0.001 µM) was 97.3% and the viability, T/C (second compound 0.00316 µM, first compound 0.00316 µM) was 86.7%. The viability, T/C (second compound 0.00316 µM, first compound 0.01 µM) was 84.1%, the viability, T/C (second compound 0.00316 µM, first compound 0.0316 µM) was 67% and the viability, T/C (second compound 0.00316 µM, first compound 0.1 µM) was 43.6%. The viability, T/C (second compound 0.01 µM, first compound 0.000316 µM) was 78.1%, the viability, T/C (second compound 0.01 µM, first compound 0.001 µM) was 85.7% and the viability, T/C (second compound 0.01 µM, first compound 0.00316 µM) was 82%. It also gave a viability, T/C (second compound 0.01 µM, first compound 0.01 µM) of 78.7%, a viability, T/C (second compound 0.01 µM, first compound 0.0316 µM) of 55.9% and a viability, T/C (second compound 0.01 µM, first compound 0.1 µM) of 43.4%. The viability, T/C (second compound 0.0316 µM, first compound 0.000316 µM) was 74.2%, the viability, T/C (second compound 0.0316 µM, first compound 0.001 µM) was 78.9% and the viability, T/C (second compound 0.0316 µM, first compound 0.00316 µM) was 67.5%. The viability, T/C (second compound 0.0316 µM, first compound 0.01 µM) was 69.8%, the viability, T/C (second compound 0.0316 µM, first compound 0.0316 µM) was 51.2% and the viability, T/C (second compound 0.0316 µM, first compound 0.1 µM) was 34.9%. It also gave a viability, T/C (second compound 0.1 µM, first compound 0.000316 µM) of 52%, a viability, T/C (second compound 0.1 µM, first compound 0.001 µM) of 47.8% and a viability, T/C (second compound 0.1 µM, first compound 0.00316 µM) of 42.8%. The viability, T/C (second compound 0.1 µM, first compound 0.01 µM) was 42.6%, the viability, T/C (second compound 0.1 µM, first compound 0.0316 µM) was 32.2% and the viability, T/C (second compound 0.1 µM, first compound 0.1 µM) was 26.1%. The viability, T/C (second compound 0.316 µM, first compound 0.000316 µM) was 33.9%, the viability, T/C (second compound 0.316 µM, first compound 0.001 µM) was 26.1% and the viability, T/C (second compound 0.316 µM, first compound 0.00316 µM) was 26.7%. For the same compound, the viability, T/C (second compound 0.316 µM, first compound 0.01 µM) was 26.3%, the viability, T/C (second compound 0.316 µM, first compound 0.0316 µM) was 18.3% and the viability, T/C (second compound 0.316 µM, first compound 0.1 µM) was 15.8%. For the same compound, the viability, T/C (second compound 1 µM, first compound 0.000316 µM) was 18.6%, the viability, T/C (second compound 1 µM, first compound 0.001 µM) was 15.8% and the viability, T/C (second compound 1 µM, first compound 0.00316 µM) was 14.3%. For the same compound, the viability, T/C (second compound 1 µM, first compound 0.01 µM) was 14.8%, the viability, T/C (second compound 1 µM, first compound 0.0316 µM) was 15.5% and the viability, T/C (second compound 1 µM, first compound 0.1 µM) was 10.1%.
